From patent US7718674B2, “Methods of relieving neuropathic pain with the S-isomer of 2-{2[N-(2-indanyl)-N-phenylamino]ethyl}piperidine” (Bridge Pharma, Inc., priority 2004, dated 2010)
Entries after “also recorded” stand apart in the source; their conditions may differ.

What was measured:
[1] = tested on: skin on the back of male or female guinea pigs; conditions: from U.S. Pat. No. 6,413,987; cited from earlier work
[2] = from U.S. Pat. No. 6,413,987; cited from earlier work
[3] = tested on: skin on the back of male or female guinea pigs; test: Dermal anesthetic activity, pin-prick method after dermal application; format: in vivo, guinea pig; conditions: for anesthetic score (dermal anesthetic effect, FIG. 1): after 30 min application, score = average number of six probings not producing a skin twitch, 10% solution of base in DMSO/water
Procedure: Approximately 18-24 hours before each experiment, the skin on the back of male or female guinea pigs was shaved and depilated with a commercially available hair remover. The anesthetic action of each agent following dermal application was determined using a “pin-prick” method as described by Aberg (Acta Pharmacol Toxicol, 1972, 31: 273-286). Before and at various intervals after treatment, the area of the skin was tested for the presence or absence of a skin twitch in response to six standardized dermal probings with a pointed metal “algesimeter” at a predetermined maximum load of 10 grams. The average number of probings not producing a skin twitch response was designated as the “anesthetic score”. In this test system no response to six stimuli represents a “maximal anesthetic activity”. In the present calculations, the dermal anesthetic activity was calculated from the time of removal of the test article formulation from the skin until skin twitch responses to all but one pinprick were identified. In experiments on the dermal anesthetic activity, a single area of skin 1 inch square was marked off on the middle of the back of each animal. This area was covered by a 1 inch square, 16 layer thick gauze pad onto which was deposited 0.45 ml of a 10% solution of the test agent dissolved in a mixture of water and DMSO. The gauze pad was covered with a 1.5 inch square sheet of Saran Wrap™ which was attached to the surrounding skin with tape. The entire area was then covered by wrapping an elastic bandage around the trunk of the animal. After a predetermined duration of treatment, the coverings were removed and the skin assessed for the presence of anesthesia as described above. Dermal anesthesia tests were performed at ten-minute intervals to measure onset time and duration of dermal anesthetic activity; comparisons were made with reference compounds and vehicle. All test compounds were in the base form and dissolved in DMSO/water when tested for dermal anesthesia.

Dermal / tissue toxicity = conditions: in vivo
Analgesic activity = test: Analgesic activity; design: species or system rats; conditions: rat, in vivo
Procedure: Peripheral mononeuropathy is induced in rats by loose ligation of the sciatic nerve in anesthetized rats. Fourteen days later, the nociceptive threshold is evaluated after animal dosing with drug or vehicle, using graded paw pressure testing to assess hyperalgesia.
Diabetes is induced in rats by intraperitoneal injection of streptozotocin. Three weeks later, the nociceptive threshold is measured after animal dosing using the paw pressure to assess hyperalgesia.

SMILES	local / dermal anesthetic activity [1]	tissue toxicity [2]	anesthetic score (dermal anesthetic effect, FIG. 1) [3]	onset of dermal anesthetic activity ([3]; comparison of the enantiomers of LAC-34)	duration of action (duration of anesthesia) ([3]; comparison with racemate and other enantiomer, same concentration)	dermal toxicity (Dermal / tissue toxicity)	analgesic activity (Analgesic activity)
c1ccc(N(CCC2CCCCN2)C2Cc3ccccc3C2)cc1 (racemic) [RS-LAC-34, 2-{2-[N-(2-indanyl)-N-phenylamino]ethyl}piperidine]	active local anesthetic compound	little, if any, tissue toxicity	–	–	–	–	–
c1ccc(N(CC[C@H]2CCCCN2)C2Cc3ccccc3C2)cc1 [R-LAC-34]	–	–	3.5	significantly shorter; also recorded: shorter onset of action	shorter duration of action	–	–
c1ccc(N(CC[C@@H]2CCCCN2)C2Cc3ccccc3C2)cc1 [S-LAC-34, S-2-{2-[N-(2-indanyl)-N-phenylamino]ethyl}piperidine]	–	–	2.6	–	–	low dermal toxicity	expresses analgesic activity
